Source: ChEMBL document CHEMBL6127089, “Novel non-peptide uracil-derived human gonadotropin-releasing hormone receptor antagonists” (Eur J Med Chem, 2024)

Molecular target: T1, Gonadotropin-releasing hormone receptor (Homo sapiens, UniProt P30968)
T1 sequence (P30968 whole entry): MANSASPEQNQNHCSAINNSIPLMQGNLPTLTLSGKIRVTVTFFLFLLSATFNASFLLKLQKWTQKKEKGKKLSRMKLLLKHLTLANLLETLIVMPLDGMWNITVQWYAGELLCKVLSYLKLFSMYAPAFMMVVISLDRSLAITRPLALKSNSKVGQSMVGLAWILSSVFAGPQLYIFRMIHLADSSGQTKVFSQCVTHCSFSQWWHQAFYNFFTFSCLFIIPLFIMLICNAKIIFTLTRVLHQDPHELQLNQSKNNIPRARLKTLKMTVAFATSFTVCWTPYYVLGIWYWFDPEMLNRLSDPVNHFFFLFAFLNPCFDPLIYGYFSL
Test: Antagonist activity at wild type HA-tagged human GnRH1 receptor expressed in HEK293T cells assessed as inhibition of GnRH peptide-stimulated IP1 accumulation by measuring GnRH peptide EC50 at 100 uM pretreated for 1 hr followed by stimulation with GnRH peptide for 1 hr (reference value: 2.5 nM)
Format: cell-based

| EC50 [nM] | SMILES |
| --- | --- |
| 0.6 | COc1cccc(-c2c(C)n(Cc3c(F)cccc3C(F)(F)F)c(=O)n(C[C@H](NCCCC(=O)O)c3ccccc3)c2=O)c1F [ELAGOLIX] |
| 39 | COc1cccc(-c2c(N[C@@H](CSCCCC(=O)O)c3ccccc3)nc(=O)n(Cc3c(F)cccc3C(F)(F)F)c2C)c1F |
| 110 | COc1cccc(-c2c(SC[C@H](NCCCC(=O)O)c3ccccc3)nc(=O)n(Cc3c(F)cccc3C(F)(F)F)c2C)c1F |
